Measured values reported in patent publication US7179832B2, “Glycogen synthase kinase 3β inhibitor, composition and process for the preparation thereof” (Crystalgenomics, Inc., priority 2003, dated 2007).

These compounds were tested against GSK-3β (Homo sapiens, UniProt P49841) (assay: Assay for GSK-3β inhibiting activity (32P-ATP, phospho-CREB peptide substrate, filter paper, CPM)). Conditions: GSK-3β inhibiting activity; 100 nM GSK-3β protein, 100 μM phospho-CREB peptide, 100 μM ATP, 30° C. for 1 hour; read-out: IC50.
Format: biochemical
Description: Assay for GSK-3β inhibiting activity
First, PCR (polymerase chain reaction) was carried out using human DNA as a template as well as primers which were designed to correspond to the 3′- and 5′ ends of the polynucleotide coding human GSK-3β gene (Genbank Accession No.: L33801). The BamH1/XhoI fragment of the amplified PCR product thus obtained was inserted into the pGex vector between the BamH1 and XhoI sites, and the vector obtained was transformed into E. coli BL21(DE3). The transformed cells thus obtained was incubated in […] (1% Bacto-trypton, 0.5% yeast extract, 1% NaCl) containing ampicillin ([…]) until the optical density at 600 nm reached about 0.5. The cultured mixture was cooled to 18° C. and isopropyl β-D-thiogalacto-pyranoside (IPTG) was added thereto to a final concentration of 0.5 mM. After 16 hours, the resultant was centrifuged at 10,000×g for 10 min, the collected cells were suspended in a buffer solution (30 mM Tris-HCl (pH 7.5), 100 mM NaCl, 5% glycerol, 2 mM DTT) and the cells were disrupted using Sonic Dismembrator (Fisher, U.S.A.) in a ice bath. The resulting solution was centrifuged at 16,000 rpm for 30 minutes. […] The purified GSK-3β protein was diluted in a buffer solution (20 mM HEPES (pH 7.5), 5% glycerol, 2 mM DTT) to a final concentration of 50 mM NaCl and the resulting solution was subjected to mono S column chromatography (eluent: linear gradient from 0M to 1M NaCl buffer) using mono S column (Pharmacia Biotech, U.S.A.) equilibrated in the same buffer solution to obtain GSK-3β protein.
The reaction was stopped by adding 5 μl of 5% phosphoric acid to 25 μl of the resulting solution. The resulting mixture was centrifuged at 15,000 rpm for 10 min, 20 μl of the supernatant was added dropwise to Whatman p81 filter paper, and then, the resulting filter paper was washed with 0.5% phosphate buffer for 10 min. The filter paper was further washed 3 times and the enzymatic activity was determined by examining the extent of phospho-CREB peptide phosphorylation which is represented by the unit of count per minute (CPM), measured with a β-counter (Packard, USA).
The GSK-3β inhibiting activity was then calculated in accordance with the following equation:
[formula] wherein the blank represents a value obtained without the use of the enzyme and the compound of the present invention, and the control, in the absence of the compound of the present invention.

Sequence of GSK-3β (P49841 whole entry): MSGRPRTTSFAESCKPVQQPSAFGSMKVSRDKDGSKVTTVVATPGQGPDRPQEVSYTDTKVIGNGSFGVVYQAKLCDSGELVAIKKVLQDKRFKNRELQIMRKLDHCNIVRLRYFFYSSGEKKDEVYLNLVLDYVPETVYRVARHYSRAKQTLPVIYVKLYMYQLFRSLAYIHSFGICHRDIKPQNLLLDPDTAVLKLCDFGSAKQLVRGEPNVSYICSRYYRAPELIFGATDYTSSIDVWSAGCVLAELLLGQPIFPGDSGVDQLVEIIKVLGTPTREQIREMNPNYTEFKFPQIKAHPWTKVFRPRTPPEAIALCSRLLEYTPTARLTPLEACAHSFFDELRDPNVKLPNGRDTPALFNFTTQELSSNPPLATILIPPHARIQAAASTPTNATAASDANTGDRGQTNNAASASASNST

IC50 [nM]	SMILES
> 1000	O=C(NCCNc1ccc([N+](=O)[O-])cn1)c1ccc(O)c2[nH]c(-c3ccccc3)nc12 [Compound 69]
> 1000	CS(=O)(=O)NCCc1ccc(NC(=O)c2ccc(O)c3[nH]c(-c4ccc(F)cc4)nc23)cc1 [Compound 33]
110	O=C(NC1CCC(O)CC1)c1ccc(O)c2[nH]c(-c3ccc(Cl)cc3)nc12 (stereo not drawn) [Compound 15]
26	Cc1ccc(S(=O)(=O)Nc2ccc(CCNC(=O)c3ccc(O)c4nc(-c5ccc(F)cc5)[nH]c34)cc2)cc1 [Compound 115]
700	Cc1ccc(S(=O)(=O)NCCc2ccc(NC(=O)c3ccc(O)c4[nH]c(-c5ccc(Cl)cc5)nc34)cc2)cc1 [Compound 16]
80	O=C(CN1CCOCC1)Nc1ccc(CCNC(=O)c2ccc(O)c3[nH]c(-c4ccc(Cl)cc4)nc23)cc1 [Compound 92]
30	Cc1cn(CCCNC(=O)c2ccc(O)c3[nH]c(-c4ccc(Cl)cc4Cl)nc23)cn1 [Compound 181]
> 1000	CN(C)c1ccc(CCNC(=O)c2ccc(O)c3[nH]c(-c4ccc(F)cc4)nc23)cc1 [Compound 135]
160	O=C(NCCc1ccc([N+](=O)[O-])cc1)c1ccc(O)c2[nH]c(-c3ccccc3)nc12 [Compound 59]
170	Nc1ccc(CCNC(=O)c2ccc(O)c3[nH]c(-c4ccc(F)cc4)nc23)cc1 [Compound 131]
70	CCCCC(=O)Nc1ccc(CCNC(=O)c2ccc(O)c3[nH]c(-c4ccc(F)cc4)nc23)cc1 [Compound 120]
> 1000	O=C(Nc1ccccc1)c1ccc(O)c2[nH]c(-c3ccc(Cl)cc3)nc12 [Compound 14]
50	O=C(NCCc1ccc(N2C(=O)c3ccccc3C2=O)cc1)c1ccc(O)c2[nH]c(-c3ccc(Cl)cc3Cl)nc12 [Compound 107]
5	O=C(NCCc1ccccc1O)c1ccc(O)c2[nH]c(-c3ccc(F)cc3)nc12 [Compound 137]
> 1000	O=C(Nc1ccc(CCN2C(=O)c3ccccc3C2=O)cc1)c1ccc(O)c2[nH]c(-c3ccc(Cl)cc3Cl)nc12 [Compound 30]
150	CCN1CCN(CC(=O)Nc2ccc(CCNC(=O)c3ccc(O)c4[nH]c(-c5ccc(F)cc5)nc34)cc2)CC1 [Compound 128]
840	O=C(NCCCN1CCCC1=O)c1ccc(O)c2[nH]c(-c3ccccc3)nc12 [Compound 164]
7	CCS(=O)(=O)NCCc1ccc(NC(=O)c2ccc(O)c3[nH]c(-c4ccc(F)cc4)nc23)cc1 [Compound 35]
250	CN1CCN(CC(=O)Nc2ccc(CCNC(=O)c3ccc(O)c4[nH]c(-c5ccc(Cl)cc5)nc34)cc2)CC1 [Compound 86]
> 5000	O=C(NCCN1CCOCC1)c1ccc(O)c2[nH]c(-c3ccc(F)cc3)nc12 [Compound 119]
190	CCCCC(=O)Nc1ccc(CCNC(=O)c2ccc(O)c3[nH]c(-c4ccc(Cl)cc4Cl)nc23)cc1 [Compound 113]
100	Cc1cn(CCCNC(=O)c2ccc(O)c3[nH]c(-c4ccc(Cl)cc4)nc23)cn1 [Compound 173]
> 1000	Nc1ccc(NC(=O)c2ccc(O)c3[nH]c(-c4ccc(Cl)cc4Cl)nc23)cc1 [Compound 25]
30	Cc1nccn1CCCNC(=O)c1ccc(O)c2[nH]c(-c3ccc(F)cc3F)nc12 [Compound 195]
> 1000	COc1cc(CCNC(=O)c2ccc(O)c3[nH]c(-c4ccccc4)nc23)ccc1O [Compound 62]
90	CS(=O)(=O)Nc1ccc(CCNC(=O)c2ccc(O)c3[nH]c(-c4ccc(F)c(Cl)c4)nc23)cc1 [Compound 161]
680	O=C(NC1CCC(O)CC1)c1ccc(O)c2[nH]c(-c3ccc(Cl)cc3Cl)nc12 (stereo not drawn) [Compound 23]
> 1000	O=C(NCCc1cccc(Br)c1)c1ccc(O)c2[nH]c(-c3ccc(Cl)cc3)nc12 [Compound 98]
230	COc1ccc(CCNC(=O)c2ccc(O)c3[nH]c(-c4ccc(Cl)cc4Cl)nc23)cc1O [Compound 102]
200	O=C(NCCc1ccc([N+](=O)[O-])cc1)c1ccc(O)c2[nH]c(-c3ccc(Cl)cc3Cl)nc12 [Compound 100]
